One data set has as its system Rice sheath blight. The data set is described as follows: In vitro fungicidal activity, PDA colony diameter. In kind it is cell-based. Conditions: 50 mg/kg, inhibition of colony diameter; read-out: Fungicidal activity (%) Rice sheath blight.
A further data set deals with Wheat head blight. The data set is described as follows: whole plant or invertebrate. In kind it is cell-based. Conditions: Triticum aestivum, read-out: Fungicidal activity (%) Wheat head blight.
The subject of another data set is Tomato early blight. Nature of the data set: In vitro fungicidal activity, PDA colony diameter. It is filed as cell-based, Alternaria solani. Conditions: 50 mg/kg, inhibition of colony diameter; read-out: Fungicidal activity (%) Tomato early blight.
For data set [1], the system named is Corn southern leaf blight. Nature of the data set: In vitro fungicidal activity, PDA colony diameter. It is filed as cell-based. Conditions: 50 mg/kg, inhibition of colony diameter; read-out: Fungicidal activity (%) Corn southern leaf blight.
The next data set concerns Apple ring rot. The data set is described as follows: In vitro fungicidal activity, PDA colony diameter. Conditions: inhibition of colony diameter. It is filed as cell-based. Put shortly: (§1)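 Percent growth inhibition derived from colony diameter versus compound-free PDA control after 4 days' culture. Plates contained compound at 50 mg/kg; inoculum was a plug taken from the periphery of a 7-day PDA culture.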

In data set [2] the test system is Capsicum phytophthora blight. Nature of the data set: In vitro fungicidal activity, PDA colony diameter. It is filed as cell-based. As to conditions: 96 h. Put shortly:
as §1

The subject of the next data set is Maize borers. Nature of the data set: Test of insecticidal activity against maize borers (leaf immersion). As to conditions: read-out: Mortalities (%) Maize borers.
For data set [3], the system named is mosquito larvae (Culer pipiens pallens). Nature of the data set: Test of insecticidal activity against mosquito larvae (checked after 24 h).
Another data set deals with Sclerotinia rot of colza. Nature of the data set: In vitro fungicidal activity, PDA colony diameter. In kind it is cell-based. As to conditions: 96 h, 50 mg/kg, inhibition of colony diameter, read-out: Fungicidal activity (%) Sclerotinia rot of colza.
Another data set concerns Rice bakanae disease. Nature of the data set: In vitro fungicidal activity, PDA colony diameter. In kind it is cell-based. As to conditions: 50 mg/kg, inhibition of colony diameter; read-out: Fungicidal activity (%) Rice bakanae disease.
A further data set deals with Wheat sheath blight. Nature of the data set: In vitro fungicidal activity, PDA colony diameter. In kind it is cell-based. Conditions: 50 mg/kg, inhibition of colony diameter; read-out: Fungicidal activity (%) Wheat sheath blight.
For a further data set, the system named is Potato late blight. Nature of the data set: microbe, parasite or virus in culture. In kind it is cell-based. As to conditions: Phytophthora infestans, 96 h, read-out: Fungicidal activity (%) Potato late blight.
A further data set deals with Armyworms. The data set is described as follows: Test of insecticidal activity against armyworms (leaf immersion). As to conditions: 600 mg/kg, 3-4 days.
In data set [4] the test system is Cercospora brown spot of peanut. The data set is described as follows: In vitro fungicidal activity, PDA colony diameter. It is filed as cell-based. Conditions: 96 h, 50 mg/kg, inhibition of colony diameter, read-out: Fungicidal activity (%) Cercospora brown spot of peanut.
The subject of another data set is Cotton bollworms. Nature of the data set: Test of insecticidal activity against cotton bollworms (pesticide mixed into feedstuff). As to conditions: read-out: Mortalities (%) Cotton bollworms.
The next data set concerns Cucumber fusarium wilt. The data set is described as follows: In vitro fungicidal activity, PDA colony diameter. It is filed as cell-based. Conditions: 96 h, 50 mg/kg, inhibition of colony diameter, read-out: Fungicidal activity (%) Cucumber fusarium wilt.
The subject of a further data set is Watermelon anthracnose. Nature of the data set: In vitro fungicidal activity, PDA colony diameter. In kind it is cell-based. As to conditions: 50 mg/kg, inhibition of colony diameter; read-out: Fungicidal activity (%) Watermelon anthracnose.
Data set [5] concerns bean aphides (Aphis laburni Kaltenbach). Nature of the data set: Test of insecticidal activity against aphides (leaf immersion, checked after 96 h). Conditions: for insecticidal activity against aphides compared with pymetrozine: 5 mg/kg; for mortality at 5 mg/kg / mortality at 10 mg/kg / mortality at 100 mg/kg / mortality at 600 mg/kg / mortality at 2.5 mg/kg: Aphis, 96 h, read-out: Mortalities (%) against aphides.
Protocol: The insecticidal activity against aphides is tested through the following steps: the tested aphides are bean aphides (Aphis laburni Kaltenbach), a normal colony fed with broad bean leaves in a laboratory. The pesticide is weighed, 1 mL DMF is added to dissolve the pesticide, then two drops of emulsifier, Tween-20 are added, and distilled water is added in an appropriate amount; the mixture is stirred to a homogeneous state to prepare pesticide solution at required concentration (see the following table for the specific concentration). […] In a control group, only emulsifier and solvent are added into distilled water, and the mixture is stirred to a homogeneous state.

[6] abbreviates: 24 h, read-out: Mortalities (%) against mosquito larvae.

Protocol for Cotton bollworms: Method of testing against cotton bollworms: the pesticide is mixed into the feedstuff, i.e., 3 mL prepared solution is added into about 27 g freshly prepared feedstuff; thus, required concentration is obtained by diluting by 10 times.

For the molecule `CC1=NNC(=O)N(NS(=O)(=O)c2cccc(F)c2)C1` [Ia-17, 3-fluoro-N-(6-methyl-3-oxo-2,3-dihydro-1,2,4-triazin-4(5H)-yl)-benzenesulfonamide], the inhibition at 50 mg/kg was 20.9% with Rice sheath blight; 35.1% in the data set on Wheat head blight; 13.4% in the data set with Tomato early blight; 0% in data set [1]; 10.8% in the data set with Apple ring rot; 13.8% in the data set with Rice bakanae disease. Moreover, the values for the inhibition at 50 mg/kg with Wheat sheath blight and with Watermelon anthracnose were 14.3% and 8.2%, respectively. The inhibition of growth at 50 mg/kg in [2] was 13.9%; with Sclerotinia rot of colza, 21%; in the data set with Potato late blight it was 3.1%; in data set [4] it was 16%; in the data set on Cucumber fusarium wilt it was 5.9%. Moreover, the mortality at 600 mg/kg is 10% in the data set on Maize borers, 5% with Cotton bollworms and 100% in [5]. Also, the mortality at 2 mg/kg in data set [3] (setting [6]) was determined as 60%. The mortality at 5 mg/kg in data set [3] (setting [6]) amounted to 100%; in [5], 35%. Also, the mortality at 10 mg/kg was found to be 100% in data set [3] (setting [6]) and 85% in [5]. Further, in the data set with Armyworms, the “Mortalities (%) Armyworms” value was 5%. Further, in data set [5], the “insecticidal activity against aphides compared with pymetrozine” value was “equivalent to the insecticidal activity of pymetrozine”. Besides, the mortality at 100 mg/kg in data set [5] worked out at 100%.

Regarding `CC1=NNC(=O)N(NS(=O)(=O)c2ccc(I)cc2)C1` [Ia-23, 4-iodo-N-(6-methyl-3-oxo-2,3-dihydro-1,2,4-triazin-4(5H)-yl)-benzenesulfonamide], the inhibition at 50 mg/kg was determined as 29.1% in the data set with Rice sheath blight; 10.8% in the data set with Wheat head blight; 19.4% with Tomato early blight; 25% in [1]; 25.7% in the data set with Apple ring rot; 20.7% in the data set with Rice bakanae disease. The inhibition at 50 mg/kg with Wheat sheath blight turned out to be 21.7%; with Watermelon anthracnose, 68.4%. Moreover, the inhibition of growth at 50 mg/kg in data set [2] came out at 38.9%; with Sclerotinia rot of colza, 31.6%; in the data set with Potato late blight it was 34.3%; in data set [4], 28%; with Cucumber fusarium wilt, 8.8%. The mortality at 600 mg/kg turned out to be 20% in the data set with Maize borers, 30% in the data set on Cotton bollworms and 100% in [5]. For the same molecule, the mortality at 1 mg/kg in [3] (setting [6]) is 30%. Moreover, the mortality at 2 mg/kg in data set [3] (setting [6]) was 100%. Further, the mortality at 5 mg/kg was found to be 100% in data set [3] (setting [6]) and 45% in data set [5]. Also, the mortality at 10 mg/kg in data set [3] (setting [6]) and in data set [5] was 100% throughout. Besides, in data set [3] (in vivo), the “insecticidal activity against mosquito larvae” value is given as “relatively high insecticidal activity”. For the same molecule, in the data set with Armyworms, the “Mortalities (%) Armyworms” value was 25%. For the same molecule, the “insecticidal activity against aphides compared with pymetrozine” value in data set [5] is listed as “equivalent to the insecticidal activity of pymetrozine”. For the same molecule, the mortality at 100 mg/kg in data set [5] came to 100%.

As for `CC1=NNC(=O)N(NS(=O)(=O)c2ccccc2C)C1` [Ia-10, 2-methyl-N-(6-methyl-3-oxo-2,3-dihydro-1,2,4-triazin-4(5H)-yl)-benzenesulfonamide], the inhibition at 50 mg/kg in the data set on Rice sheath blight came out at 17.4%; in the data set on Wheat head blight, 13.5%; in the data set on Tomato early blight it was 9%; in data set [1], 37.5%; in the data set on Apple ring rot it was 10.8%; in the data set with Rice bakanae disease it was 13.8%. The inhibition at 50 mg/kg was 14.3% with Wheat sheath blight and 39.2% with Watermelon anthracnose. For the same molecule, the inhibition of growth at 50 mg/kg in [2] came out at 9.4%; in the data set with Sclerotinia rot of colza, 21%; with Potato late blight, 18.7%; in [4], 4%; with Cucumber fusarium wilt, 5.9%. Besides, the mortality at 600 mg/kg with Maize borers stood at 40%; in the data set with Cotton bollworms, 50%; in data set [5], 100%. In data set [3] (setting [6]), the mortality at 2 mg/kg was 40%. For the same molecule, the mortality at 5 mg/kg in data set [3] (setting [6]) amounted to 100%; in data set [5], 90%. The mortality at 10 mg/kg in [3] (setting [6]) and in data set [5] was 100% each time. The “Mortalities (%) Armyworms” value in the data set with Armyworms turned out to be 40%. In addition, the mortality at 2.5 mg/kg in data set [5] stood at 25%. For the same molecule, in data set [5], the mortality at 100 mg/kg worked out at 100%.

For `CC1=NNC(=O)N(NS(=O)(=O)c2ccc(F)cc2)C1` [Ia-18, 4-fluoro-N-(6-methyl-3-oxo-2,3-dihydro-1,2,4-triazin-4(5H)-yl)-benzenesulfonamide], the inhibition at 50 mg/kg in the data set with Rice sheath blight came out at 22.1%; with Wheat head blight it was 2.7%; in the data set on Tomato early blight, 11.9%; in [1], 3.1%; in the data set on Apple ring rot it was 8.1%; in the data set on Rice bakanae disease, 20.7%. The inhibition at 50 mg/kg worked out at 4.3% with Wheat sheath blight and 14.7% in the data set on Watermelon anthracnose. The inhibition of growth at 50 mg/kg worked out at 5.6% in data set [2]; 21% with Sclerotinia rot of colza; 18.7% in the data set on Potato late blight; 12% in [4]; 14.7% in the data set with Cucumber fusarium wilt. The mortality at 600 mg/kg in the data set on Maize borers stood at 25%; with Cotton bollworms it was 0%; in [5], 100%. The mortality at 2 mg/kg in data set [3] (setting [6]) was 40%. The mortality at 5 mg/kg was 100% in [3] (setting [6]) and 45% in data set [5]. The mortality at 10 mg/kg in data set [3] (setting [6]) and in data set [5] was 100% each time. In the data set with Armyworms, the “Mortalities (%) Armyworms” value is 50%. Further, the “insecticidal activity against aphides compared with pymetrozine” value in data set [5] is “equivalent to the insecticidal activity of pymetrozine”. In addition, in [5], the mortality at 100 mg/kg amounted to 100%.

On to `CCCS(=O)(=O)NN1CC(C)=NNC1=O` [Ia-3, N-(6-methyl-3-oxo-2,3-dihydro-1,2,4-triazin-4(5H)-yl)-n-propylsulfonamide], for which the inhibition at 50 mg/kg in the data set with Rice sheath blight is 14.3%; in the data set with Wheat head blight, 3.3%; with Tomato early blight, 0%; in data set [1], 16.7%; with Apple ring rot, 0%; with Rice bakanae disease it was 16.7%. For the same molecule, the inhibition at 50 mg/kg in the data set with Wheat sheath blight was found to be 47.7%; with Watermelon anthracnose, 12.5%. Besides, the inhibition of growth at 50 mg/kg in data set [2] was 24.5%; in the data set with Sclerotinia rot of colza, 35%; in the data set with Potato late blight, 22.2%; in data set [4], 26.3%; with Cucumber fusarium wilt, 0%. Besides, the mortality at 600 mg/kg in the data set on Maize borers was 20%; in the data set on Cotton bollworms, 10%; in data set [5], 95%. The mortality at 10 mg/kg in data set [3] (setting [6]) is 55%; in [5] it was 40%. In addition, the “Mortalities (%) Armyworms” value in the data set on Armyworms is recorded as 25%. Further, in [5], the mortality at 100 mg/kg amounted to 75%.

In the case of `CC1=NNC(=O)N(NS(=O)(=O)c2cccc(C)c2)C1` [Ia-11, 3-methyl-N-(6-methyl-3-oxo-2,3-dihydro-1,2,4-triazin-4(5H)-yl)-benzenesulfonamide], the inhibition at 50 mg/kg in the data set on Rice sheath blight turned out to be 16.3%; in the data set with Wheat head blight it was 2.7%; in the data set on Tomato early blight, 1.5%; in [1], 18.7%; with Apple ring rot, 6.8%; with Rice bakanae disease it was 10.3%. Also, the inhibition at 50 mg/kg in the data set with Wheat sheath blight is 14.3%; in the data set on Watermelon anthracnose, 36.1%. The inhibition of growth at 50 mg/kg in [2] is 27.8%; with Sclerotinia rot of colza it was 26.3%; in the data set with Potato late blight, 9.3%; in data set [4], 8%; in the data set with Cucumber fusarium wilt, 8.8%. In addition, the results for the mortality at 600 mg/kg (in the data set on Maize borers; with Cotton bollworms; in [5]) were 15%, 20% and 100%, respectively. In addition, the mortality at 2 mg/kg in [3] (setting [6]) is 20%. Also, the values for the mortality at 5 mg/kg in data set [3] (setting [6]) and in [5] were 100% and 80%, respectively. The mortality at 10 mg/kg in data set [3] (setting [6]) and in [5] was 100% in each case. Also, the “Mortalities (%) Armyworms” value in the data set with Armyworms stood at 20%. In addition, the mortality at 2.5 mg/kg in data set [5] amounted to 15%. In addition, in data set [5], the mortality at 100 mg/kg stood at 100%.

The values are drawn from patent publication US11203577B2, “Sulfonyl-structure-containing triazinone derivatives, their preparation methods and their uses in insect killing and/or bacterium killing” (Nankai University, priority 2017, dated 2021).
